Patent US8067408B2, “Dual pharmacophores—PDE4-muscarinic antagonistics” (priority 2008, dated 2011)

system: not given; experiment: not given; conditions: not given

| melting point | SMILES |
| --- | --- |
| 111 to 113 °C | CCc1nc2c(cnn2CC)c(NC2CCOCC2)c1CNC(=O)c1cccc(C(=O)NCc2cc(Cl)cc(-c3cccc(CN4CCCN(C)CC4)c3)c2)c1 [Example 428, N-({5-Chloro-3′-[(4-methylhexahydro-1H-1,4-diazepin-1-yl)methyl]-3-biphenylyl}methyl)-N′-{[1,6-diethyl-4-(tetrahydro-2H-pyran-4-ylamino)-1H-pyrazolo[3,4-b]pyridin-5-yl]methyl}-1,3-benzenedicarboxamide] |
| 112 to 114 °C | CCc1nc2c(cnn2CC)c(NC2CCOCC2)c1CNC(=O)c1cccc(C(=O)NCc2cc(Cl)cc(-c3cccc(CN4C[C@@H](C)N[C@@H](C)C4)c3)c2)c1 [Example 429, N-[(5-Chloro-3′-{[(3R,5S)-3,5-dimethyl-1-piperazinyl]methyl}-3-biphenylyl)methyl]-N′-{[1,6-diethyl-4-(tetrahydro-2H-pyran-4-ylamino)-1H-pyrazolo[3,4-b]pyridin-5-yl]methyl}-1,3-benzenedicarboxamide] |
| 121 to 124 °C | CCc1nc2c(cnn2CC)c(NC2CCOCC2)c1CNC(=O)c1cccc(C(=O)NCc2cc(Cl)cc(-c3cccc(CN4CCCNCC4)c3)c2)c1 [Example 430, N-{[5-Chloro-3′-(hexahydro-1H-1,4-diazepin-1-ylmethyl)-3-biphenylyl]methyl}-N′-{[1,6-diethyl-4-(tetrahydro-2H-pyran-4-ylamino)-1H-pyrazolo[3,4-b]pyridin-5-yl]methyl}-1,3-benzenedicarboxamide] |
| 130 to 133 °C | CCc1nc2c(cnn2CC)c(NC2CCOCC2)c1CNC(=O)c1cccc(C(=O)NCc2cc(Cl)cc(-c3cccc(CN4C[C@@H]5C[C@H]4CN5)c3)c2)c1 [Example 431, N-({5-Chloro-3′-[(1S,4S)-2,5-diazabicyclo [2.2.1]hept-2-ylmethyl]-3-biphenylyl}methyl)-N′-{[1,6-diethyl-4-(tetrahydro-2H-pyran-4-ylamino)-1H-pyrazolo[3,4-b]pyridin-5-yl]methyl}-1,3-benzenedicarboxamide] |

system: M1, M2 (w/Gqi5) and M3 ACh receptors stably expressed in CHO cells; experiment: Calcium mobilization (FLIPR) IC50 determination for antagonists of ACh induced muscarinic receptor activation; type: cell-based, human; conditions: EC80 concentration of ACh, active if IC50 of between 33 uM and 10 nM or less, receptor subtype (M1/M2/M3) not specified
Text: Calcium Mobilization Studies (FLIPR)
Studies to determine the effectiveness of antagonists to cause blockade of functional intracellular calcium fluxes following agonist (ACh) treatment of cloned human receptors.
This system is used for characterizations of antagonist-receptor interactions using four distinct variations of the FLIPR methodology: (a) potency: IC50 determination, (b) potency: pA2 determination, (c) reversibility of antagonist-receptor interaction, or (d) confirmation of no functional agonist activity. • Cell Source The human M1-M3 receptors are cloned and stably expressed in Chinese Hamster Ovary (CHO) cells. The M2 receptors are co-expressed with the chimeric G protein, Gqi5. • Cell lines: M1 stable: Biocat #1044; M2+Gqi5 stable: Biocat #95663; M3 stable: Biocat #1049 • Method of Culture: CHO-M1, CHO-Gqi5-M2 and CHO-M3 cells are cultured to confluence at 37° C. in a humidified incubator with 5% CO2/95% air. CHO-M1 and CHO-M3 are cultured in Alpha MEM with nucleosides and L-glutamine and 10% fetal calf serum. […] The emitted fluorescence from all 96 wells is measured simultaneously using a cooled CCD camera. Data points are collected every second. Maximal change in emission from each well after simultaneous addition of agonist or compound to each of the 96 wells is then exported to an excel spreadsheet. […] Experimental Protocols: • Cell plating: A microtiter plate based calcium mobilization FLIPR (Fluorometric Imaging Plate Reader, Molecular Devices, Sunnyvale Calif., [Schroeder KS, Neagle, BD. FLIPR: a new instrument for accurate, high throughput optical screening. J. Biomol. Screen. 1996; 1:75.]) assay is used for the functional characterization of compounds against M1, M2 (w/Gqi5) and M3 ACh receptors stably expressed in CHO cells. […] The basal emission fluorescence is measured, then the cellular response to an EC80 concentration of ACh (3.3 nM against M1, 10 nM against M2 and 1.0 nM against M3) prepared in KRH assay buffer with 0.1% BSA (no gelatin), is monitored in FLIPR for 90 seconds and then 50 μL of 100 μM ATP (assay concentration of 20 μM) is added to check cell viability (H. M. Sarau et al, 1999. Mol. Pharmacol. 56, 657-663). […]

| SMILES | IC50: compound pretreatment concentration which inhibits 50% of the ACh induced response |
| --- | --- |
| CCc1nc2c(cnn2CC)c(NC2CCOCC2)c1CNCc1cccc(C(=O)NCc2ccc(F)c(-c3cccc(CN4CCNCC4)c3)c2)c1 [Example 228, 3-[({[1,6-Diethyl-4-(tetrahydro-2H-pyran-4-ylamino)-1H-pyrazolo[3,4-b]pyridin-5-yl]methyl}amino)methyl]-N-{[6-fluoro-3′-(1-piperazinylmethyl)-3-biphenylyl]methyl}benzamide] | most active |
| CCc1nc2c(cnn2CC)c(NC2CCOCC2)c1CNC(=O)c1cccc(C(=O)NCc2cc(-c3cccc(CN4CCN(C)CC4)c3)ccc2OC)c1 [Example 271, N-{[1,6-Diethyl-4-(tetrahydro-2H-pyran-4-ylamino)-1H-pyrazolo[3,4-b]pyridin-5-yl]methyl}-N′-({4-(methyloxy)-3′-[(4-methyl-1-piperazinyl)methyl]-3-biphenylyl}methyl)-1,3-benzenedicarboxamide] | most active |
| CCc1nc2c(cnn2CC)c(NC2CCOCC2)c1CNC(=O)c1cccc(C(=O)NCc2ccc(F)c(-c3cccc(CNC4CCCC4)c3)c2)c1 [Example 307, N-({3′-[(Cyclopentylamino)methyl]-6-fluoro-3-biphenylyl}methyl)-N′-{[1,6-diethyl-4-(tetrahydro-2H-pyran-4-ylamino)-1H-pyrazolo[3,4-b]pyridin-5-yl]methyl}-1,3-benzenedicarboxamide] | most active |
| CCc1nc2c(cnn2CC)c(NC2CCOCC2)c1CNC(=O)c1cccc(C(=O)NCc2ccc(F)c(-c3cccc(CNc4ccncc4)c3)c2)c1 [Example 311, N-{[1,6-Diethyl-4-(tetrahydro-2H-pyran-4-ylamino)-1H-pyrazolo[3,4-b]pyridin-5-yl]methyl}-N′-({6-fluoro-3′-[(4-pyridinylamino)methyl]-3-biphenylyl}methyl)-1,3-benzenedicarboxamide] | most active |
